As a reminder, the pIC50 is the negative decadic logarithm of the IC50, by convention in mol/L. A high value points to a low IC50.

Results on two compounds are retold here after ChEMBL document CHEMBL3098081, “Synthesis and anticancer potential of benzothiazole linked phenylpyridopyrimidinones and their diones as mitochondrial apoptotic inducers” (Bioorg Med Chem Lett, 2014).

Assay [1] is described as follows: Cytotoxicity against human ME180 cells after 48 hrs by MTT assay. The assay is classed as functional, cell-based. As to conditions: ME-180, 48 h.
Assay [2] has as its system MCF7. Briefly: cells. As to conditions: Homo sapiens, MCF7, 48 h.
Description: Cytotoxicity against human MCF7 cells after 48 hrs by MTT assay
The test system of assay [3] is DU-145. Briefly: Cytotoxicity against human DU145 cells after 48 hrs by MTT assay. Type of assay: functional, cell-based. Particulars: DU-145, 48 h.
The subject of assay [4] is B16. Briefly: Cytotoxicity against mouse B16 cells after 48 hrs by MTT assay. Type of assay: functional, cell-based. Particulars: B16, 48 h. For orientation: Tetrazolium dyes change colour on reduction, which living cells bring about.

SMILES strings stand for the structures. pIC50: −log10 of the molar value.

`COc1cc(-n2c(=O)n(-c3nc4ccc([N+](=O)[O-])cc4s3)c(=O)c3cccnc32)cc(OC)c1OC`: the pIC50 in assay [1] is less than 4.70; in assay [2] it was less than 4.70; in assay [3] it was less than 4.70; in assay [4], 4.70.
`O=c1[nH]cc(F)c(=O)[nH]1` [FLUOROURACIL]: the negative-log IC50 (pIC50) is 5.31 in assay [1], 5.46 in assay [2] and 5.38 in assay [4].
